Experimental data taken from patent publication US20250195521A1 (Revolution Medicines, Inc., priority 2020, published 2025).
Where “and” joins values, the source holds several entries; their conditions need not be identical. Equal entries are not always repeated. Where two headings read alike, the source gives them in different places.

Legend:
AsPC-1 (K-Ras G12D) = assay: Potency assay: pERK; format: cell-based, human; conditions: Homo sapiens
Method: The purpose of this assay is to measure the ability of test compounds to inhibit K-Ras in cells. […] This procedure measures a decrease in cellular pERK in response to test compounds. The procedure described below in NCI-H358 cells is applicable to K-Ras G12C.
NCI-H358 cells were grown and maintained using media and procedures recommended by the ATCC. On the day prior to compound addition, cells were plated in 384-well cell culture plates (40 μl/well) and grown overnight in a 37° C., 5% CO2 incubator. Test compounds were prepared in 10, 3-fold dilutions in DMSO, with a high concentration of 10 mM. On the day of assay, 40 nL of test compound was added to each well of cell culture plate using an Echo550 liquid handler (LabCyte®). Concentrations of test compound were tested in duplicate. After compound addition, cells were incubated 4 hours at 37° C., 5% CO2. Following incubation, culture medium was removed and cells were washed once with phosphate buffered saline.
In some experiments, cellular pERK level was determined using the AlphaLISA SureFire Ultra p-ERK1/2 Assay Kit (PerkinElmer). Cells were lysed in 25 μL lysis buffer, with shaking at 600 RPM at room temperature. Lysate (10 μL) was transferred to a 384-well Opti-plate (PerkinElmer) and 5 μL acceptor mix was added. After a 2-hour incubation in the dark, 5 μL donor mix was added, plate was sealed, and incubated 2 hours at room temperature. Signal was read on an Envision plate reader (PerkinElmer) using standard AlphaLISA settings. Analysis of raw data was carried out in Excel (Microsoft) and Prism (GraphPad). Signal was plotted vs. the decadal logarithm of compound concentration, and IC50 was determined by fitting a 4-parameter sigmoidal concentration response model.
In other experiments, cellular pERK was determined by In-Cell Western. Following compound treatment, cells were washed twice with 200 μL tris buffered saline (TBS) and fixed for 15 minutes with 150 μL 4% paraformaldehyde in TBS. Fixed cells were washed 4 times for 5 minutes with TBS containing 0.1% Triton X-100 (TBST) and then blocked with 100 μL Odyssey blocking buffer (LI-COR) for 60 minutes at room temperature. Primary antibody (PERK, CST-4370, Cell Signaling Technology) was diluted 1:200 in blocking buffer, and 50 μL was added to each well and incubated overnight at 4° C. Cells were washed 4 times for 5 minutes with TBST. Secondary antibody (IR-800CW rabbit, LI-COR, diluted 1:800) and DNA stain DRAQ5 (LI-COR, diluted 1:2000) were added and incubated 1-2 hours at room temperature. Cells were washed 4 times for 5 minutes with TBST. Plates were scanned on a Li—COR Odyssey CLx Imager. Analysis of raw data was carried out in Excel (Microsoft) and Prism (GraphPad). Signal was plotted vs. the decadal logarithm of compound concentration, and IC50 was determined by fitting a 4-parameter sigmoidal concentration response model.

[1] = system: Capan-1 cells (K-Ras G12V); assay: CellTiter-Glo cell viability, Capan-1; format: cell-based, human; conditions: Homo sapiens, CAPAN-1, 120 h, K-Ras G12V, 5-day treatment; read-out: Capan-1 Cell Viability IC50
Summary of the method: (§1)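 Compounds were dispensed directly onto seeded cells and incubated until day 5, then plates were equilibrated at room temperature for about 30 min before CellTiter-Glo luminescence readout. Signals were normalized as (sample/average DMSO)×100 and fitted with a four-parameter logistic model.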

KRAS G12V = KRAS G12V (Homo sapiens (Human), UniProt P01116+P62937, G12V); assay: Ras-Raf disruption/FRET/MOA assay (BRAF RBD, Cyclophilin A); format: biochemical; conditions: read-out: KRAS G12V FRET IC50
Sequence of KRAS G12V (P01116 other isoform, or with tags, fused parts or gaps G12V): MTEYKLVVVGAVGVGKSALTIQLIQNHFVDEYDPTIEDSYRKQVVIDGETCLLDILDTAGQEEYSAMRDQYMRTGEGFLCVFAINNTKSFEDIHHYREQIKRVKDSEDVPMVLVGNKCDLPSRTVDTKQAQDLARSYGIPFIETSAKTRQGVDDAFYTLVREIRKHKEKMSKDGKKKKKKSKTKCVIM
Sequence of KRAS G12V (P62937 whole entry): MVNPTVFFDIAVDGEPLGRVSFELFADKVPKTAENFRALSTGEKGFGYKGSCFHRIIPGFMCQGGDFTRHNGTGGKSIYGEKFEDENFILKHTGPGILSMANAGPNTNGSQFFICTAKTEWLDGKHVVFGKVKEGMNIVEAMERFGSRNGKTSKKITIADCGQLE
Summary of the method: (§2)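 TR-FRET readout: anti-His Eu-W1024 (10 nM) and anti-GST allophycocyanin (50 nM) added after 3 h, 25° C compound incubation, then 1.5 h more. Decrease in FRET ratio versus DMSO wells marks Ras:RAF disruption; IC50 reported.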

NRAS WT = NRAS WT (Homo sapiens (Human), UniProt P01111+P62937); assay: as above; format: biochemical
Sequence of NRAS WT (P01111 whole entry): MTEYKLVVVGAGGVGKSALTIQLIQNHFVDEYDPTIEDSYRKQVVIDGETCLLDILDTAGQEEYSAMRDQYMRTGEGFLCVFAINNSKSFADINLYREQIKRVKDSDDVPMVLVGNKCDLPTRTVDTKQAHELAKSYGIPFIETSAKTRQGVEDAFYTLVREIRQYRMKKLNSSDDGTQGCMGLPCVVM
Sequence of NRAS WT (P62937 whole entry): as the sequence (P62937 whole entry) above
Summary of the method: as §2

KRAS G13D = KRAS G13D (Homo sapiens (Human), UniProt P01116+P62937, G13D); assay: as above; format: biochemical; conditions: read-out: KRAS G13D FRET data IC50
Sequence of KRAS G13D (P01116 other isoform, or with tags, fused parts or gaps G13D): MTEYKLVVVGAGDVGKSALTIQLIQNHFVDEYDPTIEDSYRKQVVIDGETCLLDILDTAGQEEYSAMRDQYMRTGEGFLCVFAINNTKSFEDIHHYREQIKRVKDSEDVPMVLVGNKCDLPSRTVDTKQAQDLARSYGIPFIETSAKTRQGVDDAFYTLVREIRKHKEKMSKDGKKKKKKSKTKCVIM
Sequence of KRAS G13D (P62937 whole entry): as the sequence (P62937 whole entry) above
Summary of the method: as §2

KRAS G12C = KRAS G12C (Homo sapiens (Human), UniProt P01116+P62937, G12C); assay: as above; format: biochemical; conditions: read-out: KRAS G12C FRET IC50
Sequence of KRAS G12C (P01116-2 other isoform, or with tags, fused parts or gaps G12C): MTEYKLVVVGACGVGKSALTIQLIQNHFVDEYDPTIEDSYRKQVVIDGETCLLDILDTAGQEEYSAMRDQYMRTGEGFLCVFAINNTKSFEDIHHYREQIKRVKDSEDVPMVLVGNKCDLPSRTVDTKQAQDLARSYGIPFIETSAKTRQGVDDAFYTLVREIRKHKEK
Sequence of KRAS G12C (P62937 whole entry): as the sequence (P62937 whole entry) above
Summary of the method: as §2

KRAS G12S = KRAS G12S (Homo sapiens (Human), UniProt P01116+P62937, G12S); assay: as above; format: biochemical; conditions: read-out: KRAS G12S FRET IC50
Sequence of KRAS G12S (P01116 other isoform, or with tags, fused parts or gaps G12S): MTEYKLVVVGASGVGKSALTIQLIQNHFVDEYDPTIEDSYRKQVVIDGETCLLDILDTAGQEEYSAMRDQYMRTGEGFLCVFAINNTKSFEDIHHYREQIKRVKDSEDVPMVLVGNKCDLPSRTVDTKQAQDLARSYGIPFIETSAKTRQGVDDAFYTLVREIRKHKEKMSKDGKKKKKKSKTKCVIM
Sequence of KRAS G12S (P62937 whole entry): as the sequence (P62937 whole entry) above
Summary of the method: as §2

KRAS G13C = KRAS G13C (Homo sapiens (Human), UniProt P01116+P62937, G13C); assay: as above; format: biochemical; conditions: read-out: KRAS G13C FRET IC50
Sequence of KRAS G13C (P01116 other isoform, or with tags, fused parts or gaps G13C): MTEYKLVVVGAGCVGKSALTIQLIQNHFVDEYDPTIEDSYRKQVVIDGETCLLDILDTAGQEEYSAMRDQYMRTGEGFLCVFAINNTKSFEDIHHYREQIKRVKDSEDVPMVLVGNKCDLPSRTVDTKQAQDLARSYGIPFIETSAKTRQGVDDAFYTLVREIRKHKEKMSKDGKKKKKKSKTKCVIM
Sequence of KRAS G13C (P62937 whole entry): as the sequence (P62937 whole entry) above
Summary of the method: as §2

KRAS WT = KRAS WT (Homo sapiens (Human), UniProt P01116+P62937); assay: as above; format: biochemical; conditions: read-out: KRAS WT FRET data IC50
Sequence of KRAS WT (P01116 other isoform, or with tags, fused parts or gaps): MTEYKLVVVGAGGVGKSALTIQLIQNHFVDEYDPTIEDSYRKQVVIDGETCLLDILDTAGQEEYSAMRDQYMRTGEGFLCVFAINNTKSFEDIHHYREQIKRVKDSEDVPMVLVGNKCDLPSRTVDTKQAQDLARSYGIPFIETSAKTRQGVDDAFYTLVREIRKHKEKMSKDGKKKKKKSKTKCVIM
Sequence of KRAS WT (P62937 whole entry): as the sequence (P62937 whole entry) above
Summary of the method: as §2

KRAS G12D = KRAS G12D (Homo sapiens (Human), UniProt P01116+P62937, G12D); assay: as above; format: biochemical; conditions: read-out: KRAS G12D FRET IC50
Sequence of KRAS G12D (P01116 other isoform, or with tags, fused parts or gaps G12D): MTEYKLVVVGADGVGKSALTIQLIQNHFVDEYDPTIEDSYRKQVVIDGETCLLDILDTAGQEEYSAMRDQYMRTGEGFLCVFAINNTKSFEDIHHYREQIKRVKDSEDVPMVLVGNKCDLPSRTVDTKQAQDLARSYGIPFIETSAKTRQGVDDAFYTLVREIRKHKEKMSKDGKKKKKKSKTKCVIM
Sequence of KRAS G12D (P62937 whole entry): as the sequence (P62937 whole entry) above
Summary of the method: as §2

NRAS G12C = NRAS G12C (Homo sapiens (Human), UniProt P01111+P62937, G12C); assay: as above; format: biochemical; conditions: read-out: NRAS G12C FRET data IC50
Sequence of NRAS G12C (P01111 whole entry G12C): as the sequence (P01111 whole entry) above, with G12C counted along it
Sequence of NRAS G12C (P62937 whole entry): as the sequence (P62937 whole entry) above
Summary of the method: as §2

NRAS Q61K = NRAS Q61K (Homo sapiens (Human), UniProt P01111+P62937, Q61K); assay: as above; format: biochemical
Sequence of NRAS Q61K (P01111 whole entry Q61K): as the sequence (P01111 whole entry) above, with Q61K counted along it
Sequence of NRAS Q61K (P62937 whole entry): as the sequence (P62937 whole entry) above
Summary of the method: as §2

[2] = system: K-Ras G12C (NCI-H358 cells); assay: Potency assay: pERK in NCI-H358 cells; format: cell-based, human; conditions: Homo sapiens; NCI-H358 cells, 4 hours; read-out: pERK EC50 (H358 KRAS G12C)
Summary of the method: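 Cells plated the day before were exposed for 4 h at 37° C, 5% CO2 to a 10-point, 3-fold DMSO dilution series (10 mM top stock), in duplicate. Phospho-ERK was read by AlphaLISA SureFire Ultra or by In-Cell Western with DRAQ5 DNA stain, and IC50 came from a 4-parameter sigmoidal fit.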

[3] = system: NCI-H358 cells (K-Ras G12C); assay: CellTiter-Glo cell viability, NCI-H358; format: cell-based, human; conditions: Homo sapiens, NCI-H358, 120 h, K-Ras G12C, 5-day treatment; read-out: H358 Cell Viability IC50
Summary of the method: as §1

[4] = target: K-Ras G12C(GMP-PNP) binding to BRAF RBD (Homo sapiens (Human), UniProt P01116+P62937, G12C); assay: Disruption of BRAF RBD interaction with K-Ras (FRET / MOA assay), K-Ras G12C; format: biochemical; conditions: read-out: KRAS G12C FRET IC50
Sequence of K-Ras G12C(GMP-PNP) binding to BRAF RBD (P01116 other isoform, or with tags, fused parts or gaps G12C): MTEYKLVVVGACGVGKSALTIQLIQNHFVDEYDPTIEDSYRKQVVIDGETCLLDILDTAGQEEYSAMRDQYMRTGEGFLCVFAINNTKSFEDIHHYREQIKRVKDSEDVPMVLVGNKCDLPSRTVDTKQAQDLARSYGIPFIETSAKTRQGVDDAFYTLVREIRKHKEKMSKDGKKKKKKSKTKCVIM
Sequence of K-Ras G12C(GMP-PNP) binding to BRAF RBD (P62937 whole entry): as the sequence (P62937 whole entry) above
Summary of the method: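 Cpd 10-pt 3-fold dilution, top 30 μM final; Ras/CypA/BRAF RBD mix 3 h, 25° C. Add anti-His Eu-W1024 10 nM + anti-GST APC 50 nM final, 1.5 h. Readout TR-FRET ratio decrease vs DMSO → IC50.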

NCI-H358 (K-Ras G12C) = assay: CellTiter-Glo cell viability assay, NCI-H358; format: cell-based, human; conditions: Homo sapiens, NCI-H358, 120 h, 5-day treatment; read-out: H358 Cell Viability assay data (K-Ras G12C, IC50)
Summary of the method: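 NCI-H358 cells were treated with test compounds dispensed directly into the assay wells and incubated until day 5. Viability was then read by CellTiter-Glo luminescence after a ~30 min room-temperature equilibration, normalized to the DMSO average (×100), and fit with a four-parameter logistic curve.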

[5] = ASPC1, AsPC-1 KRAS G12D, read-out: pERK EC50

Structure (SMILES): CCn1c(-c2cccnc2[C@H](C)OC)c2c3cc(ccc31)-c1cc(O)cc(c1)C[C@H](NC(=O)[C@H](C(C)C)N(C)C(=O)N1CCN(C(=O)[C@@H]3CN3)CC1)C(=O)N1CCC[C@H](N1)C(=O)OCC(C)(C)C2 (atropisomer, axis not shown) [Example 197]
- EC50 (AsPC-1 (K-Ras G12D); [5]): < 5 µM

Structure (SMILES): CO[C@@H](C)c1ncccc1-c1c2c3cc(ccc3n1C)-c1cc(O)cc(c1)C[C@H](NC(=O)[C@H](C(C)C)N(C)C(C)=O)C(=O)N1CCC[C@H](N1)C(=O)OCC(C)(C)C2 [Compound A104]
- IC50 [1]: > 10 µM
- IC50 (KRAS G12V): > 10 µM
- IC50 (NRAS WT): 1 to 10 µM
- IC50 (KRAS G13D): > 10 µM
- IC50 (KRAS G12C): 1 to 10 µM and > 10 µM
- IC50 (KRAS G12S): > 10 µM
- IC50 (KRAS G13C): 1 to 10 µM
- IC50 (KRAS WT): > 10 µM
- IC50 (KRAS G12D): > 10 µM
- IC50 (NRAS G12C): > 10 µM
- IC50 (NRAS Q61K): 1 to 10 µM
- EC50 [2]: < 5 µM
- IC50 [3]: 1 to 10 µM

Structure (SMILES): CCn1c(-c2cccnc2[C@H](C)OC)c2c3cc(ccc31)-c1cc(O)cc(c1)C[C@H](NC(=O)[C@H](C(C)C)N(C)C(=O)C1(C(=O)O)CC1)C(=O)N1CCC[C@H](N1)C(=O)OCC(C)(C)C2 [Compound A150]
- IC50 [1]: > 10 µM
- IC50 (KRAS G12V): > 10 µM
- IC50 (NRAS WT): 1 to 10 µM
- IC50 (KRAS G13D): > 10 µM
- IC50 (KRAS G12C): 1 to 10 µM
- IC50 (KRAS G12S): > 10 µM
- IC50 (KRAS G13C): 1 to 10 µM
- IC50 (KRAS WT): 1 to 10 µM
- IC50 (KRAS G12D): > 10 µM
- IC50 (NRAS G12C): 1 to 10 µM
- IC50 (NRAS Q61K): 1 to 10 µM
- IC50 [4]: 0.01 to 0.1 µM
- IC50 (NCI-H358 (K-Ras G12C)): < 0.01 µM

Structure (SMILES): CCn1c(-c2cccnc2[C@H](C)OC)c2c3cc(ccc31)-c1csc(n1)C[C@H](NC(=O)[C@H](C(C)C)N1CCC3(CN(S(C)(=O)=O)C3)C1=O)C(=O)N1CCC[C@H](N1)C(=O)OCC(C)(C)C2 [Compound A234]
- IC50 [1]: > 10 µM
- IC50 (KRAS G12V): > 10 µM
- IC50 (NRAS WT): 1 to 10 µM
- IC50 (KRAS G13D): > 10 µM
- IC50 (KRAS G12S): > 10 µM
- IC50 (KRAS G13C): 1 to 10 µM
- IC50 (KRAS WT): 1 to 10 µM
- IC50 (KRAS G12D): > 10 µM
- IC50 (NRAS G12C): > 10 µM
- IC50 (NRAS Q61K): 1 to 10 µM

Structure (SMILES): CCn1c(-c2cccnc2[C@H](C)OC)c2c3cc(ccc31)-c1cc(O)cc(c1)C[C@H](NC(=O)[C@H](C(C)C)N(C)C(=O)CN(C)C(=O)[C@H]1CN1)C(=O)N1CCC[C@H](N1)C(=O)OCC(C)(C)C2 [Example 42A]
- EC50 (AsPC-1 (K-Ras G12D); ASPC1, read-out: pERK EC50): < 5 µM

Structure (SMILES): CCn1c(-c2cccnc2[C@H](C)OC)c2c3cc(ccc31)-c1cc(O)cc(c1)C[C@H](NC(=O)[C@H](C(C)C)N(C)C(=O)c1ccc([C@@H]3CN3)cc1)C(=O)N1CCC[C@H](N1)C(=O)OCC(C)(C)C2 [Example 131]
- EC50 (AsPC-1 (K-Ras G12D); [5]): < 5 µM

Structure (SMILES): CCn1c(-c2cccnc2[C@H](C)OC)c2c3cc(ccc31)-c1cc(O)cc(c1)C[C@H](NC(=O)[C@H](C(C)C)N(C)C(=O)N1CCN(C(=O)[C@H]3CN3)CC1)C(=O)N1CCC[C@H](N1)C(=O)OCC(C)(C)C2 [Example 177, 4-((R)-aziridine-2-carbonyl)-N-((2S)-1-(((6^3S,4S)-1^1-ethyl-2^5-hydroxy-1^2-(2-((S)-1-methoxyethyl)pyridin-3-yl)-10,10-dimethyl-5,7-dioxo-6^1,6^2,6^3,6^4,6^5,6^6-hexahydro-1^1H-8-oxa-1 (5,3)-indola-6 (1,3)-pyridazina-2 (1,3)-benzenacycloundecaphane-4-yl)amino)-3-methyl-1-oxobutan-2-yl)-N-methylpiperazine-1-carboxamide]
- EC50 (AsPC-1 (K-Ras G12D); [5]): < 5 µM

Structure (SMILES): CCn1c(-c2cccnc2[C@H](C)OC)c2c3cc(ccc31)-c1cc(O)cc(c1)C[C@H](NC(=O)[C@H](C1CCCC1)N1CC[C@@]3(CCN(C(=O)[C@@H]4N[C@@H]4C4CC4)C3)C1=O)C(=O)N1CCC[C@H](N1)C(=O)OCC(C)(C)C2 [Example 215]
- EC50 (AsPC-1 (K-Ras G12D); [5]): < 5 µM

Structure (SMILES): CCn1c(-c2cccnc2[C@H](C)OC)c2c3cc(ccc31)-c1csc(n1)C[C@H](NC(=O)[C@H](C1CCCC1)N1CC[C@]3(CCN(C(=O)[C@@H]4N[C@@H]4C4CC4)C3)C1=O)C(=O)N1CCC[C@H](N1)C(=O)OCC(C)(C)C2 [Example 234]
- EC50 (AsPC-1 (K-Ras G12D); [5]): < 5 µM

Structure (SMILES): CCn1c(-c2cccnc2[C@H](C)OC)c2c3cc(ccc31)-c1cc(O)cc(c1)C[C@H](NC(=O)[C@H](C(C)C)N(C)C(=O)CN(C)C(=O)[C@@H]1CN1CCCN1CCCC1=O)C(=O)N1CCC[C@H](N1)C(=O)OCC(C)(C)C2 (some centres unmarked) [Example 269]
- EC50 (AsPC-1 (K-Ras G12D); ASPC1, read-out: pERK EC50): < 5 µM

Structure (SMILES): CCn1c(-c2cccnc2[C@H](C)OC)c2c3cc(ccc31)-c1cc(cc(C(F)F)c1)C[C@H](NC(=O)[C@H](C1CCCC1)N1CC[C@]3(CCN(C(=O)[C@@H]4N[C@@H]4C4CC4)C3)C1=O)C(=O)N1CCC[C@H](N1)C(=O)OCC(C)(C)C2 [Example 318]
- EC50 (AsPC-1 (K-Ras G12D); [5]): < 5 µM
